Reference: the OligoGym collection
After the bases stand the sugars from the 5' end (letter, count) and the backbone: PS all phosphorothioate, else s phosphorothioate and o phosphodiester by linkage. Methylation of C is not given here. e = 2'-O-(2-methoxyethyl) (MOE); k = constrained ethyl (cEt); d = 2'-deoxy (DNA); m = 2'-O-methyl

Molecular target: HSD17B13
Details: ASO, HepaRG

Row | Sequence | target mRNA inhibition (1 µM) [%] | also measured
1 | CCTCTAAGTTAGCCCC (sugars k3 d9 k3 e1, PS) | 16 | –
2 | TAGGCTTAGTGTAGAA (sugars k3 d10 k3, PS) | 38 | –
3 | AGAAAGTTCATTCGAA (sugars k3 d10 k3, PS) | 61 | –
4 | AGAGGATAGTGAACAT (sugars k3 d10 k3, PS) | 59 | –
5 | TGAAATTGATACACCA (sugars k3 d10 k3, PS) | 58 | –
6 | GCTACTTGAACAGTCT (sugars kkdddddddddkekek, PS) | 64 | –
7 | CTAACTAACCTGACAC (sugars k3 d10 k3, PS) | 23 | –
8 | CTCCTTATTTGTTAGA (sugars k3 d10 k3, PS) | 26 | –
9 | CCGCGCTTATTAATAT (sugars k3 d10 k3, PS) | 21 | –
10 | TTATGTACCAAACTTG (sugars k3 d10 k3, PS) | 53 | –
11 | TATGTAATAGCCAGTA (sugars k3 d9 k3 e1, PS) | 82 | target mRNA inhibition (0.02 µM): 23%; target mRNA inhibition (0.078 µM): 28%; target mRNA inhibition (0.313 µM): 53%; target mRNA inhibition (1.25 µM): 78%; target mRNA inhibition (5 µM): 93%
12 | GTCTTAAACCTTCCCT (sugars k3 d10 k3, PS) | 63 | –
13 | AAATAGAGTCGGTCAC (sugars k3 d10 k3, PS) | 59 | –
14 | TACATCACCCACTTCT (sugars k3 d10 k3, PS) | 37 | –
15 | GATAGATCTCTTCTCT (sugars k3 d10 k3, PS) | 0 | –
16 | GGAATGCTACTTGAAC (sugars kkdddddddddkekek, PS) | 49 | –
17 | TCTCTTGGGTCCATTG (sugars k3 d10 k3, PS) | 63 | –
18 | ACAGATTGGAATGCTA (sugars k3 d1 m1 d8 k3, PS) | 70 | –
19 | ACAAUATGGGATGAGG (sugars k3 d1 m1 d8 k3, PS) | 70 | target mRNA inhibition (0.02 µM): 0%; target mRNA inhibition (0.078 µM): 2%; target mRNA inhibition (0.313 µM): 0%; target mRNA inhibition (1.25 µM): 48%; target mRNA inhibition (5 µM): 59%
20 | CTTCATAGTGGACTTC (sugars k3 d9 k3 e1, PS) | 57 | –
21 | GTGTAAGCTGAGAGTT (sugars k3 d9 k3 e1, PS) | 45 | –
22 | TTATTGGTAAGTATTC (sugars k3 d10 k3, PS) | 17 | –
23 | CTTTCATAGGGAGACC (sugars k3 d10 k3, PS) | 73 | target mRNA inhibition (0.02 µM): 20%; target mRNA inhibition (0.078 µM): 2%; target mRNA inhibition (0.313 µM): 54%; target mRNA inhibition (1.25 µM): 75%; target mRNA inhibition (5 µM): 86%

Row | Sequence | target mRNA inhibition (1 µM) [%] | also measured
24 | TTACAGCATCAAGACA (sugars k3 d10 k3, PS) | 46 | –
25 | TCCCAACCAAACTTCC (sugars k3 d1 m1 d8 k3, PS) | 43 | –
26 | TTCATTCGAATTTCTT (sugars k3 d10 k3, PS) | 71 | target mRNA inhibition (0.02 µM): 12%; target mRNA inhibition (0.078 µM): 10%; target mRNA inhibition (0.313 µM): 43%; target mRNA inhibition (1.25 µM): 78%; target mRNA inhibition (5 µM): 89%
27 | GTAATTCTAAACTAGT (sugars k3 d10 k3, PS) | 39 | –
28 | CAAGAGGATAGTCCAT (sugars k3 d1 m1 d8 k3, PS) | 60 | –
29 | GCAGTTATTAGAAGTC (sugars k3 d9 k3 e1, PS) | 67 | –
30 | GTTGACTAATGCAAGA (sugars k3 d10 k3, PS) | 59 | –
31 | AGACAATACAGGATAG (sugars k3 d10 k3, PS) | 15 | –
32 | TCTGTCTCCAATACAG (sugars k3 d10 k3, PS) | 13 | –
33 | AGAAATTCACCTTGAC (sugars k3 d10 k3, PS) | 39 | –
34 | GGCCTGAAGTTCTGAT (sugars k3 d10 k3, PS) | 0 | –
35 | TTCTATGCAAGCCTTC (sugars k3 d10 k3, PS) | 51 | –
36 | ACTGCTGCTAGTGCCA (sugars k3 d1 m1 d8 k3, PS) | 64 | –
37 | GCACCGTTTTGGGCTA (sugars kkdddddddddkekek, PS) | 49 | –
38 | CAGCTATAGGTAGCTA (sugars k3 d10 k3, PS) | 0 | –
39 | TTCTGTGGCATGGCTA (sugars k3 d10 k3, PS) | 78 | target mRNA inhibition (0.02 µM): 0%; target mRNA inhibition (0.078 µM): 0%; target mRNA inhibition (0.313 µM): 34%; target mRNA inhibition (1.25 µM): 67%; target mRNA inhibition (5 µM): 91%
40 | ACTTGATCTCTTAGCT (sugars k3 d1 m1 d8 k3, PS) | 39 | –
41 | GGGAATGCTCATATTA (sugars k3 d10 k3, PS) | 18 | –
42 | TGATTAAGCAGAATTG (sugars k3 d10 k3, PS) | 57 | –
43 | ACCGCGCTTATTAATA (sugars k3 d10 k3, PS) | 4 | –
44 | TTCTCTCCATCATCGA (sugars k3 d10 k3, PS) | 35 | –
45 | GAGTGCATCTTAAGAT (sugars k3 d10 k3, PS) | 43 | –
46 | TGATATTCTGTGGCAT (sugars k3 d9 k3 e1, PS) | 74 | target mRNA inhibition (0.02 µM): 8%; target mRNA inhibition (0.078 µM): 23%; target mRNA inhibition (0.313 µM): 40%; target mRNA inhibition (1.25 µM): 67%; target mRNA inhibition (5 µM): 90%

Row | Sequence | target mRNA inhibition (1 µM) [%] | also measured
47 | ATCCTATATACATCCA (sugars k3 d9 k3 e1, PS) | 75 | target mRNA inhibition (0.02 µM): 0%; target mRNA inhibition (0.078 µM): 7%; target mRNA inhibition (0.313 µM): 39%; target mRNA inhibition (1.25 µM): 55%; target mRNA inhibition (5 µM): 76%
48 | ATATACGATGGAACAA (sugars k3 d10 k3, PS) | 0 | –
49 | CATTTAGCAGCTTGGA (sugars k3 d10 k3, PS) | 88 | target mRNA inhibition (0.02 µM): 0%; target mRNA inhibition (0.078 µM): 0%; target mRNA inhibition (0.313 µM): 54%; target mRNA inhibition (1.25 µM): 75%; target mRNA inhibition (5 µM): 86%
50 | GAATCAAATAGATCCT (sugars k3 d10 k3, PS) | 46 | –
51 | GGACTTCAGAGTTATA (sugars k3 d10 k3, PS) | 36 | –
52 | AGAGGATAGTCCATGC (sugars k3 d1 m1 d8 k3, PS) | 53 | –
53 | TTTAACTTTCCTCCGT (sugars k3 d10 k3, PS) | 16 | –
54 | TACTTTTAGGGAGGTA (sugars k3 d10 k3, PS) | 28 | –
55 | AAGATCGGCTGGATAT (sugars k3 d10 k3, PS) | 1 | –
56 | ATGCTAAAAGCTCACC (sugars k3 d10 k3, PS) | 50 | –
57 | ATGAGGTAAGGAATCC (sugars k3 d10 k3, PS) | 0 | –
58 | GTAAACTAAAGTACTT (sugars k3 d10 k3, PS) | 0 | –
59 | CATACGCATGCGCAGT (sugars k3 d10 k3, PS) | 60 | –
60 | ATGTAATAGCCAGTAC (sugars k3 d9 k3 e1, PS) | 63 | –
61 | CTTGAATGAGTGGTCT (sugars k3 d10 k3, PS) | 64 | target mRNA inhibition (0.02 µM): 10%; target mRNA inhibition (0.078 µM): 16%; target mRNA inhibition (0.313 µM): 46%; target mRNA inhibition (1.25 µM): 69%; target mRNA inhibition (5 µM): 88%
62 | ACTAACCAATTATATG (sugars k3 d10 k3, PS) | 6 | –
63 | CCTAGTTTTCGGCACT (sugars k3 d10 k3, PS) | 62 | –
64 | TGGTAAACTGTATGCC (sugars k3 d10 k3, PS) | 76 | target mRNA inhibition (0.02 µM): 0%; target mRNA inhibition (0.078 µM): 3%; target mRNA inhibition (0.313 µM): 40%; target mRNA inhibition (1.25 µM): 72%; target mRNA inhibition (5 µM): 85%
65 | CTAATGAATCATGATT (sugars k3 d10 k3, PS) | 20 | –
66 | TATGTGATTGAGTTCT (sugars kkdddddddddkekek, PS) | 23 | –
67 | AGTACAGTTCCTTTTC (sugars k3 d10 k3, PS) | 69 | –
68 | TAGTCTTGATGTAGTG (sugars k3 d9 k3 e1, PS) | 61 | –
69 | GTCCACCTTTAAATGG (sugars k3 d10 k3, PS) | 33 | –

Row | Sequence | target mRNA inhibition (1 µM) [%] | also measured
70 | GTAATTGCATCTGCTC (sugars k3 d10 k3, PS) | 51 | –
71 | GGAGTAGATGATGGTG (sugars k3 d10 k3, PS) | 31 | –
72 | GACTTTCATAGGGAGA (sugars k3 d10 k3, PS) | 72 | –
73 | TCTCTAAAGCAGGCTA (sugars k3 d10 k3, PS) | 60 | –
74 | GAAGTGCTTTTGTGAT (sugars k3 d10 k3, PS) | 34 | –
75 | AGACAAGAGTTCTTGC (sugars k3 d10 k3, PS) | 30 | –
76 | GATACCAGTTTTTCCC (sugars k3 d10 k3, PS) | 75 | –
77 | TGCAGCATTGATTCGA (sugars kkdddddddddkekek, PS) | 42 | –
78 | AAAGATCTGGCCAGTT (sugars k3 d10 k3, PS) | 3 | –
79 | GAAATATAGAGGGTCC (sugars k3 d10 k3, PS) | 22 | –
80 | TCTAGAATTAAGGGCT (sugars k3 d10 k3, PS) | 45 | –
81 | ACAATACAGGATAGAG (sugars k3 d10 k3, PS) | 23 | –
82 | CTCCAAGGAGTGCATC (sugars k3 d10 k3, PS) | 53 | –
83 | GATGUAGTGGGAGTCG (sugars k3 d1 m1 d8 k3, PS) | 35 | –
84 | TAGTGCCAAACCAATG (sugars kkdddddddddkekek, PS) | 66 | target mRNA inhibition (0.02 µM): 11%; target mRNA inhibition (0.078 µM): 18%; target mRNA inhibition (0.313 µM): 27%; target mRNA inhibition (1.25 µM): 53%; target mRNA inhibition (5 µM): 57%
85 | TGTCCAGGTTGAGATA (sugars kkdddddddddkekek, PS) | 48 | –
86 | TAGTGTAAGCTGAGAG (sugars k3 d10 k3, PS) | 75 | target mRNA inhibition (0.02 µM): 0%; target mRNA inhibition (0.078 µM): 0%; target mRNA inhibition (0.313 µM): 2%; target mRNA inhibition (1.25 µM): 48%; target mRNA inhibition (5 µM): 83%
87 | CGACTTCATCTGTCTC (sugars k3 d10 k3, PS) | 19 | –
88 | CTGTGTTAGCTTTAAT (sugars k3 d1 m1 d8 k3, PS) | 41 | –
89 | AACTAGAACTCCCAAC (sugars k3 d10 k3, PS) | 0 | –
